US8354539B2, “Indole derivatives as IKK2 inhibitors” (Glaxo Group Limited, priority 2009, dated 2013)

How the values were obtained:
Recombinant human IKK1 = target: T1, Recombinant human IKK1 (Homo sapiens, UniProt O15111); assay: IKK1 time-resolved fluorescence resonance energy transfer assay; type: biochemical; settings: IKK2 assay and IKK2 time dependent assay versus IKK1 TR-FRET assay
T1 construct: Recombinant human IKK1 (residues 1-785); 6HIS (C); made in house
T1 sequence (O15111 1-745): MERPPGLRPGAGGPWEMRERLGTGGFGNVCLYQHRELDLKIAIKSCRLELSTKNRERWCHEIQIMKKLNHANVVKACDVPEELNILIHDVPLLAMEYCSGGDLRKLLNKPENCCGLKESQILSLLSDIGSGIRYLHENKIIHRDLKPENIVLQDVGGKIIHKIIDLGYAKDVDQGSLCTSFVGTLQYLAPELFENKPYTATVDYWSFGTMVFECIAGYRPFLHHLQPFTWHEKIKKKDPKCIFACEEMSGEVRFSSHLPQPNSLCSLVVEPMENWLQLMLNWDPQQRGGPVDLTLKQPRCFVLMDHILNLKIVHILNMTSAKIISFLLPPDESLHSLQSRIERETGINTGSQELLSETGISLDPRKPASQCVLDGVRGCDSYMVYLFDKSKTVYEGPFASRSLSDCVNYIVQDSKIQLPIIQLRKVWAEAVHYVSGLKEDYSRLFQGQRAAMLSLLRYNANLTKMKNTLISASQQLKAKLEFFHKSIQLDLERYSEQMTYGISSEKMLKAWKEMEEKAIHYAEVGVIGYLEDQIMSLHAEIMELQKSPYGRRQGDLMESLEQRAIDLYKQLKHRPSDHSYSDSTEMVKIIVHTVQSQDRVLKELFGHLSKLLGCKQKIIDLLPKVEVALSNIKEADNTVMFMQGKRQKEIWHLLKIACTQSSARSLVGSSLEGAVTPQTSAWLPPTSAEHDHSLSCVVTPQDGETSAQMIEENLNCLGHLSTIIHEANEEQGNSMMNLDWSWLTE
Description: Recombinant human IKK1 (residues 1-785) was expressed in baculovirus as a C-terminal 6HIS-tagged fusion protein, and its activity was assessed using a time-resolved fluorescence resonance energy transfer (TR-FRET) assay. Briefly, IKK1 (typically 5-10 nM final) diluted in assay buffer (50 mM HEPES, 10 mM MgCl2, 1 mM CHAPS pH 7.4 with 1 mM DTT and 0.01% w/v BSA) was added to wells containing various concentrations of compound or DMSO vehicle (1.7% v/v final). The reaction was initiated by the addition of GST-IκBα substrate (25 nM final)/ATP (1 μM final), in a total volume of 6 μl. The reaction was incubated for 15 minutes at room temperature, then terminated by the addition of stop reagent (3 μl) containing 50 mM EDTA and detection reagents in buffer (100 mM HEPES pH 7.4, 150 mM NaCl and 0.01% w/v BSA). […] The degree of phosphorylation of GST-IκBα was measured using a suitable time-resolved fluorimeter such as Packard Discovery (Perkin-Elmer Life Sciences, Pangbourne, Berkshire, UK), Wallac Viewlux (Perkin-Elmer Life Sciences, Pangbourne, Berkshire, UK), Envision (Perkin-Elmer Life Sciences, Pangbourne, Berkshire, UK), or Rubystar (BMG, Aylesbury, Buckinghamshire, UK) as a ratio of specific 665 nm energy transfer signal to reference europium 620 nm signal.

A549 SPAP cells = assay: NFkB reporter assay; type: cell-based; settings: Homo sapiens, TNF stimulated, read-out: pIC50 potency (converted)
Description: A 70% confluent T225 flask of A549 SPAP cells was harvested by centrifugation for 5 min at 200 g, resuspended in assay buffer (DMEM supplemented with 10% FCS 2×HI, 2 mM L-Glutamine, 1% Pen/Strep and Non essential amino acids) and diluted to 0.16×10^6/ml. 60 μl of cell solution was dispensed to each well of clear Nunc 384-well plates, containing 0.5 μl compound in neat DMSO at 140× the required final assay concentration. Plates were incubated for 1h at 37° C., 95% humidity, 5% CO2 before […] of TNF solution in assay buffer was added to give a final concentration of 3.2 ng/ml and then returned to the cell incubator for 15 h. Plates were equilibrated to room temperature for 1 h prior to the addition of 25 μl of pNPP buffer (1 M Diethanolamine pH 9.8, 0.5 mM MgCl2, 0.28M NaCl, 2 mg/ml pNPP) to each well of assay plates. The plates were covered to protect the reagents from light, and then incubated at room temperature for approximately 1 hour before reading them on an Ascent using a 405 nm single filter.
All data was normalized to the mean of 16 high and 16 low control wells on each plate. A four parameter curve fit of the following form was then applied

IC50 (A549 SPAP cells): < 31.6 nM
SMILES: COCCS(=O)(=O)N1CCC(c2c[nH]c3c(C(N)=O)cc(-c4ccc5c(c4)CN(C(C)C)C5)cc23)CC1 [Compound of formula (I), 5-[2-(1-methylethyl)-2,3-dihydro-1H-isoindol-5-yl]-3-(1-{[2-(methyloxy)ethyl]sulfonyl}-4-piperidinyl)-1H-indole-7-carboxamide]
potency at IKK2 relative to IKK1 (Recombinant human IKK1): inhibited IKK2 with greater potency than IKK1
